Experimental findings from patent publication EP4603105A1, “PHARMACEUTICAL COMPOSITION CONTAINING CYCLIC COMPOUND HAVING SELECTIVE KRAS INHIBITORY EFFECT AGAINST HRAS AND NRAS” (CHUGAI SEIYAKU KABUSHIKI KAISHA, priority 2022, dated 2024) are described below.

In experiment [1] the target is GDP-bound NRAS wild-type protein (Homo sapiens, UniProt P01111). The experiment is described as follows: Binding to NRAS by surface plasmon resonance (SPR), KD and KD ratio to KRAS. The note with it: ratio of KD with respect to GDP-bound NRAS wild-type protein to KD with respect to KRAS. The procedure, abridged: (§1)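 Affinity is measured by surface plasmon resonance at 30°C against captured, GDP-loaded RAS carrying a biotinylated Avi tag. Compounds are titrated by single-cycle kinetics, and KD comes from a 1:1 fit.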

In the next experiment the target is HRAS wild-type protein (Homo sapiens, UniProt P01112). In words: Binding to HRAS by surface plasmon resonance (SPR), KD and KD ratio to KRAS. The note with it: ratio of KD with respect to HRAS wild-type protein to KD with respect to KRAS. A digest of the protocol:
as §1

For experiment [2], the target named is GDP-bound KRAS wild-type protein (Homo sapiens, UniProt P01116). In words: Binding to KRAS by surface plasmon resonance (SPR), dissociation constant KD. The note with it: Single Cycle Kinetics, 1:1 binding model. A digest of the protocol: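 Measured at 30°C: SPR with GDP-loaded, E. coli-expressed biotin-Avi RAS captured (~100–300 RU), ascending 75 s compound injections, HBS pH 7.4 with GDP, MgCl2, 4% DMSO. KD from 1:1 fit.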
(In SPR one partner is held on a chip, and binding of the other changes the refractive index at the surface.)

The subject of experiment [3] is human lung cancer strain NCI-H441. In words: NCI-H441 cell proliferation inhibitory activity (CellTiter-Glo, 4 days). The experiment is classed as cell-based. The note with it: 50% proliferation inhibitory concentration, four days, read-out: NCl-H441 IC50. The procedure, abridged:
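Readout: […] after the ATP-based reagent. Compound: serial dilutions in dimethyl sulfoxide.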
In general terms: Cellular ATP, detected with luciferase, serves as a proxy for viable cell number.

GDP-bound KRAS wild-type protein, sequence (P01116 1-188 isoform P01116-2): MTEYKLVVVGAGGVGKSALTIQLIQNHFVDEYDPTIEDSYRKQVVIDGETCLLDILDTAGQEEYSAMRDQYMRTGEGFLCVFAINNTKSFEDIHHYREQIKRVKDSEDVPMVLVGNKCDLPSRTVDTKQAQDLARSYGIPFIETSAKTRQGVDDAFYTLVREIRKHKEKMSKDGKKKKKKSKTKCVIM
HRAS wild-type protein, sequence (P01112 whole entry): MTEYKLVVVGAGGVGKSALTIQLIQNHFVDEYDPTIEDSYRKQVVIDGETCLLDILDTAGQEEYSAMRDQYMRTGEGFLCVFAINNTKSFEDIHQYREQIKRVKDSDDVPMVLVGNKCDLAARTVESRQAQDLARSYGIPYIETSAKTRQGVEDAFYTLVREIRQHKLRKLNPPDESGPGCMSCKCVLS
GDP-bound NRAS wild-type protein, sequence (P01111 whole entry): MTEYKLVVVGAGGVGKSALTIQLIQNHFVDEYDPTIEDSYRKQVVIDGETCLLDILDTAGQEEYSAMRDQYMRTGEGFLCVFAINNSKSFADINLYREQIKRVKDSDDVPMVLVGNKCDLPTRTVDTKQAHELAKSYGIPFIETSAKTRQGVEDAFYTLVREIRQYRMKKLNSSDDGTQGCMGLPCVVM

In general, Kd refers to a measure of binding affinity in units of concentration. Low values mean a tighter complex, high ones a looser complex. The term IC50 denotes the concentration needed to halve the response being measured. With `CC[C@H](C)[C@@H]1NC(=O)[C@H](CC2CCC2)N(C)C(=O)C[C@@H](C(=O)N(C)C)N(C)C(=O)[C@H](C2CCCC2)N(C)C(=O)C2(CCCC2)NC(=O)[C@@H]2CCCN2C(=O)[C@H](CCc2cc(F)c(C(F)(F)F)c(F)c2)NC(=O)CN(C)C(=O)[C@H](Cc2ccc(C(F)(F)F)cc2)N2C[C@H](C)CC[C@@H](C2=O)N(C)C(=O)CN(C)C1=O` [PP1386], the “NRAS /KRAS” value in experiment [1] is “B (a compound having 3 or more and less than 10 is denoted as B)”. The “HRAS /KRAS” value at HRAS wild-type protein was “B (a compound having 3 or more and less than 10 is denoted as B)”. The compound also came in with a Kd in experiment [2] of 0.082 nM. Also, the IC50 in experiment [3] was found to be 4.2 nM.
Take `CCO[C@@H]1C[C@H]2C(=O)NC3(CCC3)C(=O)N(C)[C@@H](C3CCCC3)C(=O)N(C)[C@H](C(=O)N(C)C)CC(=O)N(C)[C@@H](CC3CCCC3)C(=O)N[C@@H]([C@@H](C)CC)C(=O)N(C)CC(=O)N(C)[C@H]3C/C=C\CCN(C3=O)[C@@H](Cc3ccc(F)cc3)C(=O)N(C)CC(=O)N[C@@H](CCc3ccc4sccc4c3)C(=O)N2C1` [PP1390]: in experiment [1], the “NRAS /KRAS” value is “A (a compound having 10 or more and less than 20 is denoted as A)”. Besides, the “HRAS /KRAS” value on HRAS wild-type protein was “A (a compound having 10 or more and less than 20 is denoted as A)”. The same compound showed a Kd in experiment [2] of 1.1 nM. Further, the IC50 in experiment [3] worked out at 305 nM.
Consider `CCO[C@@H]1C[C@H]2C(=O)NC3(CCC3)C(=O)N(C)[C@@H](C3CCCC3)C(=O)N(C)[C@H](C(=O)N3CCCC3)CC(=O)N(C)[C@@H](CC3CCCC3)C(=O)N[C@@H]([C@@H](C)CC)C(=O)N(C)CC(=O)N(C)[C@H]3C/C=C\CCN(C3=O)[C@@H](Cc3ccc(F)cc3)C(=O)N(C)CC(=O)N[C@@H](CCc3ccc4sccc4c3)C(=O)N2C1` [PP1391], for which the “NRAS /KRAS” value in experiment [1] is “A (a compound having 10 or more and less than 20 is denoted as A)”. Moreover, the “HRAS /KRAS” value on HRAS wild-type protein is “A (a compound having 10 or more and less than 20 is denoted as A)”. Besides, the equilibrium dissociation constant (Kd) in experiment [2] is 1.6 nM. Also, the IC50 in experiment [3] turned out to be 271 nM.
As for `CCO[C@@H]1C[C@H]2C(=O)NC3(CCC3)C(=O)N(C)[C@@H](C3CCCC3)C(=O)N(C)[C@H](C(=O)N3CCOCC3)CC(=O)N(C)[C@@H](CC3CCCC3)C(=O)N[C@@H]([C@@H](C)CC)C(=O)N(C)CC(=O)N(C)[C@H]3C/C=C\CCN(C3=O)[C@@H](Cc3ccc(C(F)(F)F)cc3)C(=O)N(C)CC(=O)N[C@@H](CCc3cc(F)c(C(F)(F)F)c(F)c3)C(=O)N2C1` [PP1393], the “NRAS /KRAS” value in experiment [1] is “A (a compound having 10 or more and less than 20 is denoted as A)”. For the same compound, at HRAS wild-type protein, the “HRAS /KRAS” value is “A (a compound having 10 or more and less than 20 is denoted as A)”. This compound also returned a Kd in experiment [2] of 0.19 nM. The IC50 in experiment [3] came out at 18.2 nM.
Consider `CCCC[C@H]1C(=O)N[C@@H]([C@@H](C)CC)C(=O)N(C)CC(=O)N(C)[C@H]2C/C=C\CCN(C2=O)[C@@H](Cc2ccc(C(F)(F)F)cc2)C(=O)N(C)CC(=O)N[C@@H](CCc2cc(F)c(C(F)(F)F)c(F)c2)C(=O)N2C[C@H](OCC)C[C@H]2C(=O)NC2(CCCC2)C(=O)N(C)[C@@H](C2CCCC2)C(=O)N(C)[C@H](C(=O)N(C)C)CC(=O)N1C` [PP1397], for which, in experiment [1], the “NRAS /KRAS” value is “A (a compound having 10 or more and less than 20 is denoted as A)”. The “HRAS /KRAS” value on HRAS wild-type protein is “A (a compound having 10 or more and less than 20 is denoted as A)”. Further, the Kd in experiment [2] was found to be 0.073 nM. The IC50 in experiment [3] amounted to 3.7 nM.
Take `CCCOC[C@H]1C(=O)N[C@@H]([C@@H](C)CC)C(=O)N(C)CC(=O)N(C)[C@H]2C/C=C\CCN(C2=O)[C@@H](Cc2ccc(C(F)(F)F)cc2)C(=O)N(C)CC(=O)N[C@@H](CCc2cc(F)c(C(F)(F)F)c(F)c2)C(=O)N2C[C@H](OCC)C[C@H]2C(=O)NC2(CC(C)(C)C2)C(=O)N(C)[C@@H](C2CCCC2)C(=O)N(C)[C@H](C(=O)N(C)C)CC(=O)N1C` [PP1398]: the “NRAS /KRAS” value in experiment [1] is “A (a compound having 10 or more and less than 20 is denoted as A)”. Besides, the “HRAS /KRAS” value on HRAS wild-type protein is “A (a compound having 10 or more and less than 20 is denoted as A)”. The compound also gave a Kd in experiment [2] of 0.032 nM. The IC50 in experiment [3] came out at 2.3 nM.
`CCCOC[C@H]1C(=O)N[C@@H]([C@@H](C)CC)C(=O)N(C)CC(=O)N(C)[C@H]2C/C=C\CCN(C2=O)[C@@H](Cc2ccc(C(F)(F)F)cc2)C(=O)N(C)CC(=O)N[C@@H](CCc2cc(F)c(C(F)(F)F)c(F)c2)C(=O)N2C[C@H](OCC)C[C@H]2C(=O)NC2(CCCC2)C(=O)N(C)[C@@H](C2CCCC2)C(=O)N(C)[C@H](C(=O)N2CCCC2)CC(=O)N1C` [PP1399]: the “NRAS /KRAS” value in experiment [1] was “A (a compound having 10 or more and less than 20 is denoted as A)”. Besides, the “HRAS /KRAS” value at HRAS wild-type protein was “A (a compound having 10 or more and less than 20 is denoted as A)”. In experiment [2], this compound registered a Kd of 0.19 nM. Further, in experiment [3], the IC50 was determined as 18.8 nM.
As for `CCCOC[C@H]1C(=O)N[C@@H]([C@@H](C)CC)C(=O)N(C)CC(=O)N(C)[C@H]2C/C=C\CCN(C2=O)[C@@H](Cc2ccc(C)cc2)C(=O)N(C)CC(=O)N[C@@H](CCc2cc(F)c(C(F)(F)F)c(F)c2)C(=O)N2C[C@H](OCC)C[C@H]2C(=O)NC2(CCCC2)C(=O)N(C)[C@@H](C2CCCC2)C(=O)N(C)[C@H](C(=O)N2CCCC2)CC(=O)N1C` [PP1401], the “NRAS /KRAS” value in experiment [1] is “A (a compound having 10 or more and less than 20 is denoted as A)”. Also, the “HRAS /KRAS” value at HRAS wild-type protein is “A (a compound having 10 or more and less than 20 is denoted as A)”. Besides, the affinity in experiment [2], expressed as Kd, was 0.26 nM. The IC50 in experiment [3] came to 34.4 nM.
Consider `CC[C@H](C)[C@@H]1NC(=O)[C@H](CC2CC2)N(C)C(=O)C[C@@H](C(=O)N(C)C)N(C)C(=O)[C@H](C2CCCC2)N(C)C(=O)C2(CCC2)NC(=O)[C@H](CCC(F)F)N(C)C(=O)[C@H](CCc2cc(F)c(C(F)(F)F)c(F)c2)NC(=O)CN(C)C(=O)[C@H](Cc2ccc(C(F)(F)F)cc2)N2CC/C=C\C[C@@H](C2=O)N(C)C(=O)CN(C)C1=O` [PP1402], for which, in experiment [1], the “NRAS /KRAS” value is “A (a compound having 10 or more and less than 20 is denoted as A)”. Besides, the “HRAS /KRAS” value on HRAS wild-type protein is “A (a compound having 10 or more and less than 20 is denoted as A)”. For the same compound, the Kd in experiment [2] came out at 0.3 nM. Moreover, the IC50 in experiment [3] amounted to 82 nM.
In the case of `CC[C@H](C)[C@@H]1NC(=O)[C@H](CC2CC2)N(C)C(=O)C[C@@H](C)N(C)C(=O)[C@H](C2CCCC2)N(C)C(=O)C2(CCC2)NC(=O)[C@H](CCC(F)F)N(C)C(=O)[C@H](CCc2cc(F)c(C(F)(F)F)c(F)c2)NC(=O)CN(C)C(=O)[C@H](Cc2ccc(C(F)(F)F)cc2)N2CC/C=C\C[C@@H](C2=O)N(C)C(=O)CN(C)C1=O` [PP1404], the “NRAS /KRAS” value in experiment [1] was “A (a compound having 10 or more and less than 20 is denoted as A)”. The “HRAS /KRAS” value at HRAS wild-type protein is “A (a compound having 10 or more and less than 20 is denoted as A)”. In addition, in experiment [2], the Kd came out at 4.8 nM. In addition, the IC50 in experiment [3] came to 498 nM.
Take `CC[C@H](C)[C@@H]1NC(=O)[C@H](CC2CC2)N(C)C(=O)C[C@@H](C)N(C)C(=O)[C@H](C2CCCC2)N(C)C(=O)C2(CCC2)NC(=O)[C@H](CC(F)F)N(C)C(=O)[C@H](CCc2cc(F)c(C(F)(F)F)c(F)c2)NC(=O)CN(C)C(=O)[C@H](Cc2ccc(C(F)(F)F)cc2)N2CC/C=C\C[C@@H](C2=O)N(C)C(=O)CN(C)C1=O` [PP1405]: the “NRAS /KRAS” value in experiment [1] is “A (a compound having 10 or more and less than 20 is denoted as A)”. Also, the “HRAS /KRAS” value on HRAS wild-type protein is “A (a compound having 10 or more and less than 20 is denoted as A)”. Besides, binding in experiment [2] was put at a Kd of 8.5 nM. In addition, the IC50 in experiment [3] turned out to be 466 nM.
